Source: patent US20220315558A1, “POLYMORPHS OF 1-(2-((((TRANS)-3-FLUORO-1-(3-FLUOROPYRIDIN-2-YL)CYCLOBUTYL)METHYL)AMINO)PYRIMIDIN-5-YL)-1H-PYRROLE-3-CARBOXAMIDE” (Cytokinetics, Inc., priority 2019, published 2022)

How the values were obtained:
Assay type in all cases: physicochemical
[1] = Competitive slurry experiments between Form I and Form IV; settings: as Example 3 (methanol, 4 to 60° C.), 12 days, XRPD
Procedure: (§1) A mechanical mixture of Form I and Form II was prepared. This mixture was analyzed by XRPD for reference. The mixture (ca. 25 mg) was suspended in methanol, and parallel maturation experiments were set up at a constant temperature, in the range of 4 to 60° C., for a total of 12 days. The resulting solids were filtered and analyzed by XRPD.
Competitive slurry experiments between Form I and Form IV were conducted in a manner similar to that described in Example 3.

[2] = Solubility of Form I in solvents at 50° C. (polymorph screening); design: key: ✓ YES; x NO
Procedure: Polymorphic Form I of 1-(2-((((trans)-3-fluoro-1-(3-fluoropyridin-2-yl)cyclobutyl)methyl)amino)pyrimidin-5-yl)-1H-pyrrole-3-carboxamide was weighed into vials, and the stated solvents were added, in increasing portions, at 50° C. With each addition, the vials were allowed to shake for ˜20 minutes. After the last addition, any suspensions observed were subjected to heat/cool cycles, between room temperature and 50° C., 4 hours at each condition, for 1 week. Solutions were allowed to slowly evaporate.
Aliquots were filtered by suction after 7 days maturation and analysed by XRPD (low resolution, air-dried only). Most solutions yielded solids after 9 days and these were analyzed by XRPD as well.

[3] = Gravimetric Vapour Sorption (GVS) moisture sorption isotherm; settings: over 0-90% RH range, 25° C.
Procedure: GVS data were collected using a SMS DVS Intrinsic moisture sorption analyser, controlled by DVS Intrinsic Control software v1.0.0.30. The sample temperature was maintained at 25° C. by the instrument controls. The humidity was controlled by mixing streams of dry and wet nitrogen, with a total flow rate of 200 ml/min The relative humidity was measured by a calibrated Rotronic probe (dynamic range of 1.0-100% RH), located near the sample. The weight change, (mass relaxation) of the sample as a function of % RH was constantly monitored by the microbalance (accuracy ±0.005 mg).
Typically 5-20 mg of sample was placed in a tared mesh stainless steel basket under ambient conditions. The sample was loaded and unloaded at 40% RH and 25° C. (typical room conditions). A moisture sorption isotherm was performed as outlined below (2 scans giving 1 complete cycle). The standard isotherm was performed at 25° C. at 10% RH intervals over a 0-90% RH range. Data analysis was undertaken in Microsoft Excel using DVS Analysis Suite v6.0.

[4] = Storage stability for 7 days at controlled temperature/RH, checked by XRPD
Procedure: Ray Powder Diffraction patterns were collected on a Bruker D8 diffractometer using Cu Kα radiation (40 kV, 40 mA), θ-2θ goniometer, and divergence of V4 and receiving slits, a Ge monochromator and a Lynxeye detector. The instrument is performance checked using a certified Corundum standard (NIST 1976). The software used for data collection was Diffrac Plus XRD Commander v2.6.1 and the data were analysed and presented using Diffrac Plus EVA v13.0.0.2 or v15.0.0.0.
Samples were run under ambient conditions as flat plate specimens using powder as received. The sample was gently packed into a cavity cut into polished, zero-background (510) silicon wafer. The sample was rotated in its own plane during analysis. The details of the data collection are: • Angular range: 2 to 42° 2θ • Step size: 0.05° 2θ • Collection time: 0.5 s/step
Polymorphic Form I of 1-(2-((((trans)-3-fluoro-1-(3-fluoropyridin-2-yl)cyclobutyl)methyl)amino)pyrimidin-5-yl)-1H-pyrrole-3-carboxamide was analyzed by XRPD, DSC, TGA, and GVS. […] Chemical stability study of Form I was also performed. XRPD patterns were measured after storage of samples of Form I for 7 days at 40° C./75% RH and 25° C./97% RH.

[5] = Competitive slurry experiments between Form I and Form II; settings: methanol, constant temperature 4 to 60° C., 12 days, XRPD
Procedure: as §1

NC(=O)c1ccn(-c2cnc(NC[C@]3(c4ncccc4F)C[C@H](F)C3)nc2)c1 [Form I, 1-(2-((((trans)-3-fluoro-1-(3-fluoropyridin-2-yl)cyclobutyl)methyl)amino)pyrimidin-5-yl)-1H-pyrrole-3-carboxamide]
relative stability versus Form IV (competitive slurry) [1]: more stable
Solubility (volumes) (✓ YES; x NO) at 50° C. ([2]; 1,4-Dioxane, 10 volumes): x
Solubility (volumes) (✓ YES; x NO) at 50° C. ([2]; 1,4-Dioxane, 25 volumes): x
Solubility (volumes) (✓ YES; x NO) at 50° C. ([2]; 1,4-Dioxane, 50 volumes): x
Solubility (volumes) (✓ YES; x NO) at 50° C. ([2]; 1-Butanol, 10 volumes): x
Solubility (volumes) (✓ YES; x NO) at 50° C. ([2]; 1-Butanol, 25 volumes): x
Solubility (volumes) (✓ YES; x NO) at 50° C. ([2]; 1-Butanol, 50 volumes): x
Solubility (volumes) (✓ YES; x NO) at 50° C. ([2]; 1-Propanol, 10 volumes): x
Solubility (volumes) (✓ YES; x NO) at 50° C. ([2]; 1-Propanol, 25 volumes): x
Solubility (volumes) (✓ YES; x NO) at 50° C. ([2]; 1-Propanol, 50 volumes): x
Solubility (volumes) (✓ YES; x NO) at 50° C. ([2]; 2-Propanol, 10 volumes): x
Solubility (volumes) (✓ YES; x NO) at 50° C. ([2]; 2-Propanol, 25 volumes): x
Solubility (volumes) (✓ YES; x NO) at 50° C. ([2]; 2-Propanol, 50 volumes): x
Solubility (volumes) (✓ YES; x NO) at 50° C. ([2]; Acetone, 10 volumes): x
Solubility (volumes) (✓ YES; x NO) at 50° C. ([2]; Acetone, 25 volumes): x
Solubility (volumes) (✓ YES; x NO) at 50° C. ([2]; Acetone, 50 volumes): x
Solubility (volumes) (✓ YES; x NO) at 50° C. ([2]; Acetonitrile, 10 volumes): ✓
Solubility (volumes) (✓ YES; x NO) at 50° C. ([2]; Anisole, 10 volumes): x
Solubility (volumes) (✓ YES; x NO) at 50° C. ([2]; Anisole, 25 volumes): x
Solubility (volumes) (✓ YES; x NO) at 50° C. ([2]; Anisole, 50 volumes): x
Solubility (volumes) (✓ YES; x NO) at 50° C. ([2]; Butyl acetate (BuOAc), 10 volumes): x
Solubility (volumes) (✓ YES; x NO) at 50° C. ([2]; Butyl acetate (BuOAc), 25 volumes): x
Solubility (volumes) (✓ YES; x NO) at 50° C. ([2]; Butyl acetate (BuOAc), 50 volumes): x
Solubility (volumes) (✓ YES; x NO) at 50° C. ([2]; Dichloromethane (DCM), 10 volumes): x
Solubility (volumes) (✓ YES; x NO) at 50° C. ([2]; Dichloromethane (DCM), 25 volumes): x
Solubility (volumes) (✓ YES; x NO) at 50° C. ([2]; Dichloromethane (DCM), 50 volumes): x
Solubility (volumes) (✓ YES; x NO) at 50° C. ([2]; Dioxane/5% water, 10 volumes): x
Solubility (volumes) (✓ YES; x NO) at 50° C. ([2]; Dioxane/5% water, 25 volumes): x
Solubility (volumes) (✓ YES; x NO) at 50° C. ([2]; Dioxane/5% water, 50 volumes): ✓
Solubility (volumes) (✓ YES; x NO) at 50° C. ([2]; Ethanol, 10 volumes): x
Solubility (volumes) (✓ YES; x NO) at 50° C. ([2]; Ethanol, 25 volumes): x
Solubility (volumes) (✓ YES; x NO) at 50° C. ([2]; Ethanol, 50 volumes): x
Solubility (volumes) (✓ YES; x NO) at 50° C. ([2]; Ethanol/5% water, 10 volumes): x
Solubility (volumes) (✓ YES; x NO) at 50° C. ([2]; Ethanol/5% water, 25 volumes): x
Solubility (volumes) (✓ YES; x NO) at 50° C. ([2]; Ethanol/5% water, 50 volumes): x
Solubility (volumes) (✓ YES; x NO) at 50° C. ([2]; Ethyl acetate, 10 volumes): x
Solubility (volumes) (✓ YES; x NO) at 50° C. ([2]; Ethyl acetate, 25 volumes): x
Solubility (volumes) (✓ YES; x NO) at 50° C. ([2]; Ethyl acetate, 50 volumes): x
Solubility (volumes) (✓ YES; x NO) at 50° C. ([2]; Heptane, 10 volumes): x
Solubility (volumes) (✓ YES; x NO) at 50° C. ([2]; Heptane, 25 volumes): x
Solubility (volumes) (✓ YES; x NO) at 50° C. ([2]; Heptane, 50 volumes): x
Solubility (volumes) (✓ YES; x NO) at 50° C. ([2]; Isopropanol (IPA)/5% water, 10 volumes): x
Solubility (volumes) (✓ YES; x NO) at 50° C. ([2]; Isopropanol (IPA)/5% water, 25 volumes): x
Solubility (volumes) (✓ YES; x NO) at 50° C. ([2]; Isopropanol (IPA)/5% water, 50 volumes): x
Solubility (volumes) (✓ YES; x NO) at 50° C. ([2]; Isopropyl acetate (IPAc), 10 volumes): x
Solubility (volumes) (✓ YES; x NO) at 50° C. ([2]; Isopropyl acetate (IPAc), 25 volumes): x
Solubility (volumes) (✓ YES; x NO) at 50° C. ([2]; Isopropyl acetate (IPAc), 50 volumes): x
Solubility (volumes) (✓ YES; x NO) at 50° C. ([2]; Methanol, 10 volumes): x
Solubility (volumes) (✓ YES; x NO) at 50° C. ([2]; Methanol, 25 volumes): x
Solubility (volumes) (✓ YES; x NO) at 50° C. ([2]; Methanol, 50 volumes): x
Solubility (volumes) (✓ YES; x NO) at 50° C. ([2]; Methyl ethyl ketone (MEK), 10 volumes): x
Solubility (volumes) (✓ YES; x NO) at 50° C. ([2]; Methyl ethyl ketone (MEK), 25 volumes): x
Solubility (volumes) (✓ YES; x NO) at 50° C. ([2]; Methyl ethyl ketone (MEK), 50 volumes): x
Solubility (volumes) (✓ YES; x NO) at 50° C. ([2]; Methyl isobutyl ketone (MIBK), 10 volumes): x
Solubility (volumes) (✓ YES; x NO) at 50° C. ([2]; Methyl isobutyl ketone (MIBK), 25 volumes): x
Solubility (volumes) (✓ YES; x NO) at 50° C. ([2]; Methyl isobutyl ketone (MIBK), 50 volumes): x
Solubility (volumes) (✓ YES; x NO) at 50° C. ([2]; Nitromethane, 10 volumes): x
Solubility (volumes) (✓ YES; x NO) at 50° C. ([2]; Nitromethane, 25 volumes): x
Solubility (volumes) (✓ YES; x NO) at 50° C. ([2]; Nitromethane, 50 volumes): x
Solubility (volumes) (✓ YES; x NO) at 50° C. ([2]; THF/5% water, 10 volumes): x
Solubility (volumes) (✓ YES; x NO) at 50° C. ([2]; THF/5% water, 25 volumes): Cloudy
Solubility (volumes) (✓ YES; x NO) at 50° C. ([2]; THF/5% water, 50 volumes): ✓
Solubility (volumes) (✓ YES; x NO) at 50° C. ([2]; Tert-butyl methyl ether (TBME), 10 volumes): x
Solubility (volumes) (✓ YES; x NO) at 50° C. ([2]; Tert-butyl methyl ether (TBME), 25 volumes): x
Solubility (volumes) (✓ YES; x NO) at 50° C. ([2]; Tert-butyl methyl ether (TBME), 50 volumes): x
Solubility (volumes) (✓ YES; x NO) at 50° C. ([2]; Tetrahydrofuran (THF), 10 volumes): x
Solubility (volumes) (✓ YES; x NO) at 50° C. ([2]; Tetrahydrofuran (THF), 25 volumes): x
Solubility (volumes) (✓ YES; x NO) at 50° C. ([2]; Tetrahydrofuran (THF), 50 volumes): x
Solubility (volumes) (✓ YES; x NO) at 50° C. ([2]; Toluene, 10 volumes): x
Solubility (volumes) (✓ YES; x NO) at 50° C. ([2]; Toluene, 25 volumes): x
Solubility (volumes) (✓ YES; x NO) at 50° C. ([2]; Toluene, 50 volumes): x
Solubility (volumes) (✓ YES; x NO) at 50° C. ([2]; Water, 10 volumes): x
Solubility (volumes) (✓ YES; x NO) at 50° C. ([2]; Water, 25 volumes): x
Solubility (volumes) (✓ YES; x NO) at 50° C. ([2]; Water, 50 volumes): x
moisture uptake as determined by GVS [3]: less than 0.07%
changes in XRPD pattern after storage ([4]; 7 days at 25° C./97% RH): No visible changes
changes in XRPD pattern after storage ([4]; 7 days at 40° C./75% RH): No visible changes
relative stability versus Form II (competitive slurry) [5]: more stable
